How the values were obtained:
[1] = target: Aldo-keto reductase family 1 member A1 (Rattus norvegicus, UniProt P51635); experiment: Inhibition of Wistar rat kidney ALR1 assessed as reduction in NADPH oxidation using D-glycuronate as substrate by UV-visible spectrophotometric method
Rattus norvegicus [2] = organism: Rattus norvegicus; experiment: Selectivity index, ratio of IC50 for Wistar rat kidney ALR1 to IC50 for Wistar rat lens ALR2
[3] = Inhibition of Wistar rat lens ALR2 assessed as reduction in NADPH oxidation using D,L-glyceraldehyde as substrate by UV-visible spectrophotometric method
[4] = Inhibition of Fischer-344 rat lens ALR2
[5] = Mixed-type inhibition of recombinant human ALR2 expressed in Escherichia coli BL21 (DE3) assessed as enzyme-inhibitor complex using varying levels of D,L-glyceraldehyde substrate by Hanes-Woolf plot analysis
Rattus norvegicus [6] = organism: Rattus norvegicus; experiment: Inhibition of ALR2 in Wistar rat lens assessed as reduction in glucose induced-sorbitol accumulation by measuring sorbitol level at 2 uM pretreated for 30 mins followed by glucose challenge measured after 3 hrs by resazurin dye based fluorescence assay (reference value: 1026.51 +/- 157.33)
[7] = Mixed-type inhibition of recombinant human ALR2 expressed in Escherichia coli BL21 (DE3) assessed as enzyme-substrate-inhibitor complex using varying levels of 4-hydroxy-trans-2-nonenal substrate by Hanes-Woolf plot analysis
[8] = Mixed-type inhibition of recombinant human ALR2 expressed in Escherichia coli BL21 (DE3) assessed as enzyme-inhibitor complex using varying levels of 4-hydroxy-trans-2-nonenal substrate by Hanes-Woolf plot analysis
[9] = Mixed-type inhibition of recombinant human ALR2 expressed in Escherichia coli BL21 (DE3) assessed as enzyme-substrate-inhibitor complex using varying levels of glutathionyl-4-hydroxytrans-2-nonenal substrate by Hanes-Woolf plot analysis
Rattus norvegicus [10] = organism: Rattus norvegicus; experiment: Inhibition of ALR2 in Wistar rat lens assessed as reduction in glucose induced-sorbitol accumulation by measuring sorbitol level at 10 uM pretreated for 30 mins followed by glucose challenge measured after 3 hrs by resazurin dye based fluorescence assay (reference value: 1026.51 +/- 157.33)
[11] = Mixed-type inhibition of recombinant human ALR2 expressed in Escherichia coli BL21 (DE3) assessed as enzyme-substrate-inhibitor complex using varying levels of D,L-glyceraldehyde substrate by Hanes-Woolf plot analysis
Rattus norvegicus [12] = organism: Rattus norvegicus; experiment: Inhibition of ALR2 in Wistar rat lens assessed as reduction in glucose induced-sorbitol accumulation by measuring sorbitol level at 50 uM pretreated for 30 mins followed by glucose challenge measured after 3 hrs by resazurin dye based fluorescence assay relative to control; design: scale not given: the % may be the effect or the level left
Homo sapiens = organism: Homo sapiens; experiment: Ratio of Ki for recombinant human ALR2 expressed in Escherichia coli BL21 (DE3) assessed as enzyme-substrate-inhibitor complex using varying levels of glutathionyl-4-hydroxytrans-2-nonenal substrate to Ki for human ALR2 expressed in Escherichia coli BL21 (DE3) assessed as enzyme-inhibitor complex using varying levels of glutathionyl-4-hydroxytrans-2-nonenal substrate
[13] = Mixed-type inhibition of recombinant human ALR2 expressed in Escherichia coli BL21 (DE3) assessed as enzyme-inhibitor complex using varying levels of L-idose substrate by Hanes-Woolf plot analysis
[14] = Mixed-type inhibition of recombinant human ALR2 expressed in Escherichia coli BL21 (DE3) assessed as enzyme-inhibitor complex using varying levels of glutathionyl-4-hydroxytrans-2-nonenal substrate by Hanes-Woolf plot analysis
[15] = Mixed-type inhibition of recombinant human ALR2 expressed in Escherichia coli BL21 (DE3) assessed as enzyme-substrate-inhibitor complex using varying levels of L-idose substrate by Hanes-Woolf plot analysis

Aldo-keto reductase family 1 member A1, sequence (P51635 whole entry, looked up): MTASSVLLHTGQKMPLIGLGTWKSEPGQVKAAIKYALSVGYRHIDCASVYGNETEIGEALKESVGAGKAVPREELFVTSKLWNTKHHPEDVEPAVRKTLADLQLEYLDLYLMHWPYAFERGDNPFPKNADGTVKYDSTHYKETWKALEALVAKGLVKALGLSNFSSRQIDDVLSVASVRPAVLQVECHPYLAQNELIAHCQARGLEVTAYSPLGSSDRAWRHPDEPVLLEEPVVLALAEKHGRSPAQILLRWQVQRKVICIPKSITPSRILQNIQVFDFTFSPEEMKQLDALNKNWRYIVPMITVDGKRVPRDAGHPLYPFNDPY

SMILES	IC50 [1] [nM]	IC50 [3] [nM]	pIC50 [3]	IC50 [4] [nM]	Activity (Rattus norvegicus [6]) [nmol/g]	Activity (Rattus norvegicus [10]) [nmol/g]	Activity (Rattus norvegicus [12]) [%]	Ratio Ki (Homo sapiens)	Ratio IC50 (Rattus norvegicus [2])	Ki [5] [nM]	Ki [7] [nM]	Ki [8] [nM]	Ki [9] [nM]	Ki [11] [nM]	Ki [13] [nM]	Ki [14] [nM]	Ki [15] [nM]
O=C1NC(=O)[C@@]2(CCOc3ccc(F)cc32)N1 [SORBINIL]				250													
O=C(c1ccc(F)cc1)c1cc(C(=O)C(F)(F)F)n(-c2cnn(O)c2)c1	67100	78	7.11		838	710	55	0.75	858	5270	2190	5840	2460	820	8610	1860	700
CS(=O)(=O)c1ccc(C(=O)c2cc(C(=O)C(F)(F)F)n(-c3cnn(O)c3)c2)cc1	72800	94	7.03						775								
O=C(c1ccccc1)c1cc(C(=O)C(F)(F)F)n(-c2cnn(O)c2)c1	> 100000	242	6.62						> 413								

Continued by falling IC50 [1], values first:

IC50 [1] [nM]	IC50 [3] [nM]	pIC50 [3]	IC50 [4] [nM]	Activity (Rattus norvegicus [6]) [nmol/g]	Activity (Rattus norvegicus [10]) [nmol/g]	Activity (Rattus norvegicus [12]) [%]	Ratio Ki (Homo sapiens)	SMILES	Ratio IC50 (Rattus norvegicus [2])	Ki [5] [nM]	Ki [7] [nM]	Ki [8] [nM]	Ki [9] [nM]	Ki [11] [nM]	Ki [13] [nM]	Ki [14] [nM]	Ki [15] [nM]
42300	140	6.85						O=C(c1cccc(F)c1)c1cc(C(=O)C(F)(F)F)n(-c2cnn(O)c2)c1	339								
34200	73	7.14						COc1ccc(C(=O)c2cc(C(=O)C(F)(F)F)n(-c3cnn(O)c3)c2)cc1	468								
27900	43	7.37		889	613	55	0.75	CSc1ccc(C(=O)c2cc(C(=O)C(F)(F)F)n(-c3cnn(O)c3)c2)cc1	650	2010	390	2830	930	210	4550	690	270
23700	64	7.13						COc1cccc(C(=O)c2cc(C(=O)C(F)(F)F)n(-c3cnn(O)c3)c2)c1	370								
14100	74	7.19						O=C(c1ccc(-c2ccccc2)cc1)c1cc(C(=O)C(F)(F)F)n(-c2cnn(O)c2)c1	190								
